Laboratory results from patent publication US10722475B2, “Stealth nanocapsules for protein delivery” (THE REGENTS OF THE UNIVERSITY OF CALIFORNIA, priority 2014, dated 2020).
Each block holds one compound with its values, some of them ahead of it.

Key:
[1] = test system: pMPC-nGOx (glucose oxidase encapsulated in a pMPC nanocapsule); assay: Activity assay, HRP-coupled oxidation rate of TMB with D-gluocose; type: biochemical
Procedure: (§6) The activity of native GOx, pMPC-nGOx, native AOx, and pMPC-nAOx were determined with a similar method. Briefly, the initial reaction rates were determined by monitoring the oxidation rates of TMB of GOx and AOx when incubating with the assay solutions with different concentrations of substrates, respectively. For native GOx and pMPC-nGOx, the assay solutions were prepared by mixing TMB (0.5 mM), native HRP (0.001 mg/mL), and different amount of D-gluocose (0.005%, 0.010%, 0.015%, 0.020%, 0.030%, 0.040%, w/v) in 0.1 M phosphate buffer (pH 7.0). […] The measurements were achieved by monitoring the A655 of the reaction solutions during the incubation of 1 μL of native enzyme or pMPC-nProtein (0.5 mg/mL for native GOx and pMPC-nGOx, 1 mg/mL for native AOx and pMPC-nAOx) with their corresponding assay solution.

[2] = test system: native glucose oxidase (GOx); assay: as above; type: biochemical
Procedure: as §6

[3] = test system: pMPC-nHRP (horseradish peroxidase encapsulated in a pMPC nanocapsule)
Description: (§1) To verify this, four enzymes, including horseradish peroxidase (HRP), glucose oxidase (GOx), uricase (UOx), and alcohol oxidase (AOx), were encapsulated with the same method, and their enzymatic activities were compared with their native counterparts, respectively.
(§2) After acryloxylation, protein was encapsulated with pMPC using a in situ polymerization method. For the polymerization, 2-Methacryloyloxyethyl phosphorylcholine (MPC) and bis-methacrylamide (BIS) were first prepared as 10% (w/v) stock solution in DI-water and anhydrous DMSO, respectively. The final protein concentration was tuned to 1 mg/mL by diluting with phosphate buffer (50 mM, pH 7.0). Polymerization was initiated by the addition of ammonium persulfate (APS) and tetramethylethylenediamine (TEMED) and kept at room temperature for 2 h. After the polymerization, the solution was dialyzed against PBS to remove unreacted monomers and by-products. The detailed synthesis parameters of pMPC-nEGFP, pMPC-nOVA, pMPC-nHRP, pMPC-nGOx, pMPC-nUOx, pMPC-nAOx, pMPC-nTf, and pMPC-nBSA were listed in Table 5.
(§3) The activity of pMPC-nHRP and native HRP were determined by monitoring the oxidation rate of 3,3′,5,5′-tetramethylbenzidine (TMB) using hydrogen peroxide (H2O2) as the substrate. Briefly, a series of H2O2 stock solutions with concentrations of 0.001%, 0.002%, 0.003%, 0.004%, 0.006%, 0.008% (w/v) was prepared by diluting a 50% H2O2 (w/v) with 0.1 M acetate buffer (pH 5.01) with 0.5 mM TMB. After mixing 1 mL of the substrate solution with 1 μL of pMPC-nHRP (0.1 mg/mL) or native HRP, the absorbance at 655 nm (A655) of the reaction solution was monitored with a UV-Vis spectrometer for 3 min. The absorption curve was plotted versus time and ΔA655/min from the linear portion of the curve was calculated. The activity assays were repeated with a series of concentrations of substrate to get the catalytic rates to obtain KM^app and kcat^app by the Lineweaver—Burk plot.

[4] = target: T1, native horseradish peroxidase (HRP) (Armoracia rusticana, UniProt P00433); assay: Activity assay, oxidation rate of TMB with H2O2 as substrate; type: biochemical
T1 construct: H2O2 substrate with TMB
T1 sequence (P00433 31-338): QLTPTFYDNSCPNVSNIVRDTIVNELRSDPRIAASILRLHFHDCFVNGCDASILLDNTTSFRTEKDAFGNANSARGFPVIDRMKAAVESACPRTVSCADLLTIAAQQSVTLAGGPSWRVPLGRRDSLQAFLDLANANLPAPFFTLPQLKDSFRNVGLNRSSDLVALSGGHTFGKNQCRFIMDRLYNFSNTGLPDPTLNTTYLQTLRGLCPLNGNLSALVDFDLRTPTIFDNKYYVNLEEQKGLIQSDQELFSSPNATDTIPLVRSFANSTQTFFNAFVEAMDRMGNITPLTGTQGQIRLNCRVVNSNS

[5] = test system: native alcohol oxidase (AOx)
Procedure: as §1, §3
(§4) The activity of native GOx, pMPC-nGOx, native AOx, and pMPC-nAOx were determined with a similar method. Briefly, the initial reaction rates were determined by monitoring the oxidation rates of TMB of GOx and AOx when incubating with the assay solutions with different concentrations of substrates, respectively. For native GOx and pMPC-nGOx, the assay solutions were prepared by mixing TMB (0.5 mM), native HRP (0.001 mg/mL), and different amount of D-gluocose (0.005%, 0.010%, 0.015%, 0.020%, 0.030%, 0.040%, w/v) in 0.1 M phosphate buffer (pH 7.0). For native AOx and pMPC-nAOx, the assay solutions were composed by TMB (0.5 mM), native HRP (0.001 mg/mL), and different amount of ethanol (0.0025%, 0.005%, 0.0075%, 0.010%, 0.020%, 0.030%, w/v) in 0.1 M phosphate buffer (pH 7.0). The measurements were achieved by monitoring the A655 of the reaction solutions during the incubation of 1 μL of native enzyme or pMPC-nProtein (0.5 mg/mL for native GOx and pMPC-nGOx, 1 mg/mL for native AOx and pMPC-nAOx) with their corresponding assay solution.

[6] = test system: pMPC-nAOx (alcohol oxidase encapsulated in a pMPC nanocapsule)
Description: as §1, §2, §3
as §4, with “The measurements were achieved by monitoring the A655 of the reaction solutions during the incubation of 1 μL of native enzyme or pMPC-nProtein (0.5 mg/mL for native GOx and pMPC-nGOx, 1 mg/mL for native AOx and pMPC-nAOx) with their corresponding assay solution.” left out

[7] = test system: pMPC-nUOx (uricase encapsulated in a pMPC nanocapsule); assay: Activity assay, decrease of A290 with urate; type: biochemical
Description: (§5) The initial rates were achieved by plotting the absorption at 290 nm versus time and calculating the ΔA290/min from the linear portion of the curve.

[8] = test system: native uricase (UOx); assay: Activity assay, decrease of A290 with urate; type: biochemical
Description: as §5

Structure (SMILES): OC[C@H]1OC(O)[C@H](O)[C@@H](O)[C@@H]1O (stereo partly drawn) [D-gluocose]
- Kcat^app/KM^app relative to native ([1]; pMPC-nGOx vs native GOx): 73.7 ± 31.1%
- kcat^app ([1]; pMPC-nGOx, 0.1 M phosphate buffer pH 7.0, 0.5 mM TMB, HRP 0.001 mg/mL): 77.6 s⁻¹
- Km ([1]; pMPC-nGOx, 0.1 M phosphate buffer pH 7.0, 0.5 mM TMB, HRP 0.001 mg/mL, read-out: KM^app): 21.6 ± 6.7 mM
- Kcat^app/KM^app ([1]; pMPC-nGOx, pH 7.0): 3600 ± 1119 M⁻¹ s⁻¹
- Kcat^app/KM^app relative to native ([2]; native GOx = 100%): 100 ± 34.5%
- kcat^app ([2]; native GOx, 0.1 M phosphate buffer pH 7.0, 0.5 mM TMB, HRP 0.001 mg/mL): 87.9 s⁻¹
- Km ([2]; native GOx, 0.1 M phosphate buffer pH 7.0, 0.5 mM TMB, HRP 0.001 mg/mL, read-out: KM^app): 18 ± 6.21 mM
- Kcat^app/KM^app ([2]; native GOx, pH 7.0): 4883 ± 1684 M⁻¹ s⁻¹

Structure (SMILES): OO [H2O2, hydrogen peroxide]
- Kcat^app/KM^app relative to native ([3]; pMPC-nHRP vs native HRP): 91.1 ± 28.1%
- kcat^app ([3]; pMPC-nHRP, 0.1 M acetate buffer pH 5.01, 0.5 mM TMB, Lineweaver-Burk): 480 s⁻¹
- Kcat^app/KM^app ([3]; pMPC-nHRP, pH 5.01, 0.5 mM TMB): 3.9669e+06 ± 1.1147e+06 M⁻¹ s⁻¹
- Km ([3]; read-out: KM^app, pMPC-nHRP, 0.1 M acetate buffer pH 5.01, 0.5 mM TMB, Lineweaver-Burk): 0.121 ± 0.034 mM
- Kcat^app/KM^app relative to native ([4]; native HRP = 100%): 100 ± 22.7%
- kcat^app ([4]; native HRP, 0.1 M acetate buffer pH 5.01, 0.5 mM TMB, Lineweaver-Burk): 403 s⁻¹

- Kcat^app/KM^app relative to native ([5]; native AOx = 100%): 100 ± 23.61%
- kcat^app ([5]; native AOx, 0.1 M phosphate buffer pH 7.0, 0.5 mM TMB, HRP 0.001 mg/mL): 18.8 s⁻¹
- Kcat^app/KM^app ([5]; native AOx, pH 7.0): 6047 ± 1428 M⁻¹ s⁻¹
- Km ([5]; read-out: KM^app, native AOx, 0.1 M phosphate buffer pH 7.0, 0.5 mM TMB, HRP 0.001 mg/mL): 3.11 ± 0.72 mM
- Kcat^app/KM^app relative to native ([6]; pMPC-nAOx vs native AOx): 75.6 ± 28.00%
- kcat^app ([6]; pMPC-nAOx, 0.1 M phosphate buffer pH 7.0, 0.5 mM TMB, HRP 0.001 mg/mL): 23.4 s⁻¹
- Kcat^app/KM^app ([6]; pMPC-nAOx, pH 7.0): 4570 ± 1279 M⁻¹ s⁻¹
- Km ([6]; read-out: KM^app, pMPC-nAOx, 0.1 M phosphate buffer pH 7.0, 0.5 mM TMB, HRP 0.001 mg/mL): 5.12 ± 1.43 mM
Structure (SMILES): CCO [ethanol]

- Kcat^app/KM^app relative to native ([7]; pMPC-nUOx vs native UOx): 90.4 ± 16.5%
- kcat^app ([7]; pMPC-nUOx, 0.1 M borate buffer pH 8): 3.59 s⁻¹
- Km ([7]; pMPC-nUOx, 0.1 M borate buffer pH 8, read-out: KM^app): 0.0259 ± 0.0043 mM
- Kcat^app/KM^app ([7]; pMPC-nUOx, pH 8): 138600 ± 22900 M⁻¹ s⁻¹
- Kcat^app/KM^app relative to native ([8]; native UOx = 100%): 100 ± 7.7%
- kcat^app ([8]; native UOx, 0.1 M borate buffer pH 8): 3.36 s⁻¹
- Km ([8]; native UOx, 0.1 M borate buffer pH 8, read-out: KM^app): 0.0219 ± 0.0017 mM
- Kcat^app/KM^app ([8]; native UOx, pH 8): 153400 ± 11800 M⁻¹ s⁻¹
Structure (SMILES): O=c1[nH]c(=O)c2[nH]c(=O)[nH]c2[nH]1 [urate]
